Series [1] is described as follows: PK study of CD33-based VHH fusions and PAX in C57BL/6N mice. The conditions noted are these: analyte tAntibody, 30 mg/kg i.v., mean. The series is classed as in vivo, mouse. Here is the method: Additionally, the PAX CD33xMIC5+GNE987 and CD33xMIC7+GNE987 were generated with a theoretical loading of 100% and investigated in PK studies conducted in C57BL/6N inbred mice (N=2 males and females for each group) provided by Charles River Laboratories Italia, Calco, Italy. The 7-8-week-old mice received 30 mg/kg (corresponding to 0.38 mg/kg PROTAC) of CD33xMIC5+GNE987 and CD33xMIC7+GNE987, CD33 antibody alone, CD33xMIC5 or CD33xMIC7 as single dose, that was intravenously injected into the tail vein. Samples have been serially collected from all animals using a microsampling technique ([…] for each blood withdrawal). After administration, two blood samples were taken on the first day and 7 during the three weeks later. Each sample was collected in pre-chilled (0-4° C.) Minivette POCT EDTA tube, transferred in Microvette CB300 EDTA and centrifuged at 2500×g for 10 min at 4° C. The obtained plasma was transferred into a new vial and immediately stored at −80° C. until further analyses. The PK study, animal handling and experimentation, was conducted in accordance with the Italian D.Lvo. 2014/26 and Directive 2010/63/EU. The study was performed at the Instituto di Ricerche Biomediche Antoine Marxer, Colleretto Giacosa, Italy. The institute is fully authorized by the Italian Ministry of Health.
The total antibody concentration was determined by ligand binding assay (LBA) based on the Meso Scale Diagnostics technology (MSD, LLC., Rockville, MD). All incubation steps were performed at 22° C. with gentle agitation. All washing steps (200 μL/well) were performed with PBS-T, containing PBS pH 7.4 and 0.01% Tween 20, using the plate washer ELx405 (BioTek instruments Inc., Winooski, VT). First, 2.5 μg/mL biotin-SP-conjugated AffiniPure goat anti-human IgG, Fcγ fragment specific (Jackson ImmunoResearch Europe Ltd., JIR, Cambridgeshire, United Kingdom, #109-065-098) was coated on MSD GOLD 96-well Streptavidin QUICKPLEX Plates (MSD, #L55SA) for 2 h. Afterwards, plates were washed three times. Plasma samples, standards and quality controls were serially diluted in dilution buffer, consisting of PBS pH 7.4, 0.05% Tween 20 and 3.0% (w/v) BSA, and incubated on the plates for 1 h. The plates were washed again and incubated for 1 h with 0.6 μg/ml mouse anti-human IgG, F(ab′)2 fragment specific (JIR, #209-005-097), previously labeled with MSD GOLG SULFO-TAG (MSD, #R31AA-1) according to the manufacturing procedure. After a final washing step, 150 μL of 2×MSD Read Buffer T with surfactant (MSD, #R92TC) was added to each well and plates were read on a MESO Quickplex SQ120 plate reader (MSD). The Software Watson LIMS (Version 7.5, ThermoFisher Scientific Inc.) was used to fit the standard curve with a 5PL (Marquart) equations, weighting factor 1/Y2, and to calculate the total mAb concentration of the plasma samples. The lower limit of quantification (LLOQ) was 50 ng/ml. The concentration of MSC2734242 was determined by liquid chromatography tandem mass spectrometry (LC-MS/MS) using a SCIEX 5500 triple quadrupole with Turbo Ion Spray source (ITS) in positive modality (SCIEX, Redwood City, CA, USA). Chromatographic separation was achieved using a Waters ACQUITY UPLC BEH (C18, 2.1×50 mm, 1.7 μm) column, mounted in a Waters ACQUITY I-class UPLC system (Milford, MA, USA), configured with a 100 μL extension loop. […]

The target in another series is MIC2. The experiment in a line: SPR binding of PROTACs to immobilized antibody MIC2. As to conditions: MIC2, 1:1 kinetic binding model. Here is the method:
The binding affinities of hit antibodies MIC1 and MIC2 to a diverse set of VH032-based PROTACs (FIGS. 8A-8B) was determined by surface plasmon resonance (SPR) in a Biacore T200 instrument. The running buffer consist of PBS, 0.05% Tween-20, 2% DMSO and temperature and flow rate were set to 30° C. and 30 μL/min, respectively. The assay setup is depicted exemplarily in FIG. 7A. CM5 sensor chips were coated with antibody (=ligand; 2500 RU) using standard EDC/NHS chemistry. PROTACs (=analytes) were serially diluted (1 μM-1.9 nM) in running buffer, injected to the instrument in consecutive runs and were captured by the antibody resulting in an increase of the corresponding SPR response. After the association step (300 s), running buffer was injected for 600 s and the PROTAC dissociated from the antibody leading to signal decrease. After each run, residual bound PROTAC was removed from the immobilized antibody by injection of 10 mM glycine/HCl, pH 1.5 for 2×30 s regenerating the antibody for the next association and dissociation cycle. To compensate for matrix effects, the measured SPR response signal was subtracted by the analyte response to an inactivated (EDC/NHS, ethanol amine) reference surface omitting the ligand. Furthermore, a DMSO solvent correction was performed and analyte response was subtracted by the running buffer signal. The corrected response was fitted by a 1:1 kinetic binding model yielding the on- (kon) and off-rate (koff) of the PROTAC, as well as its dissociation constant (KD).
A general note: SPR reads the build-up and loss of mass on a sensor chip optically.

The target in a further series is CD33xMIC7. The experiment in a line: SPR affinity of VHH clone (antibody fusion) to PROTACs. As to conditions: CD33xMIC7 immobilized, 25° C., read-out: KD [M] for antibody binding to PROTAC. Here is the method:
(§1) The kinetic and affinity parameters of protein-PROTAC interactions were evaluated by SPR. The anti-PROTAC VHH clones MIC5-MIC14 were immobilized as CD33 or CLL1 antibody fusion (the manufacturing of fusion proteins and the used linker is described in chapter 7.9) onto a CM5 (Series S) sensor chip via the standard amine coupling procedure, at 25° C. Prior to immobilization, the carboxymethylated surface of the chip was activated with 400 mM 1-ethyl-3-(3-dimethylaminopropyl)-carbodiimide and 100 mM N-hydroxysuccinimide for 7 min. Hit anti-PROTAC VHH as CD33 and CLL1 antibody fusions were diluted to 10 μg/ml in 10 mM Acetate at pH 4.5 and immobilized on the activated surface chip for 7 min, in order to reach 3,000 to 6,000 response units (RU). The remaining activated carboxymethylated groups were blocked with a 10 min injection of 1 M ethanolamine pH 8. HBS-N, which consists of 10 mM HEPES pH 7.4 and 150 mM NaCl, was used as the background buffer during immobilization. PROTACs were prediluted in DMSO, diluted 1:50 in running buffer (12 mM phosphate pH 7.4, 137 mM NaCl, 2.7 mM KCl, 0.05% Tween20, 2% DMSO) and injected at ten different concentrations using two-fold dilution series, from 1 μM to 0.002 μM. A DMSO solvent correction (1%-3%) was performed to account for variations in bulk signal and to achieve high-quality data. Interaction analysis cycles consisted of a 300 sec sample injection (30 μL/min; association phase) followed by 900 sec of buffer flow (dissociation phase).
(§2) All sensorgrams were processed by first subtracting the binding response recorded from the control surface (reference flow-channel), followed by subtracting of the buffer blank injection from the active flow-channel (target protein immobilized). All datasets were fit to a simple 1:1 Langmuir interaction model to determine the kinetic rate constants. Experiments were performed on a Biacore 8k+ (Cytiva, Uppsala, Sweden) at 25° C. and the interactions were evaluated using the provided Biacore Insight Evaluation software.

The target of the next series is CD33xMIC6. Described as above. The conditions noted are these: CD33xMIC6 immobilized, 25° C., read-out: KD [M] for antibody binding to PROTAC. Here is the method:
as §1, §2

The target in a further series is CD33xMIC5. The description is as above. The conditions noted are these: CD33xMIC5 immobilized, 25° C., read-out: KD [M] for antibody binding to PROTAC. Here is the method:
as §1, §2

The target in the next series is CD33xMIC10. The description is as above. As to conditions: CD33xMIC10 immobilized, 25° C., read-out: KD [M] for antibody binding to PROTAC. Here is the method:
as §1, §2

The target in a further series is CD33xMIC14. The series is described as above. As to conditions: CD33xMIC14 immobilized, 25° C., read-out: KD [M] for antibody binding to PROTAC. Here is the method:
as §1, §2

The next series deals with CD33xMIC13. The description is as above. The conditions noted are these: CD33xMIC13 immobilized, 25° C., read-out: KD [M] for antibody binding to PROTAC. Here is the method: as §1, §2
The target of the next series is CD33xMIC11. Described as above. The conditions noted are these: CD33xMIC11 immobilized, 25° C., read-out: KD [M] for antibody binding to PROTAC. Here is the method: as §1, §2
The next series addresses CD33xMIC12. The description is as above. The conditions noted are these: CD33xMIC12 immobilized, 25° C., read-out: KD [M] for antibody binding to PROTAC. Here is the method:
as §1, §2

In a further series the target is CD33xMIC8. Described as above. The conditions noted are these: CD33xMIC8 immobilized, 25° C., read-out: KD [M] for antibody binding to PROTAC. Here is the method:
as §1, §2

The target in a further series is CD33xMIC9. The series is described as above. The conditions noted are these: CD33xMIC9 immobilized, 25° C., read-out: KD [M] for antibody binding to PROTAC. Here is the method:
as §1, §2

A value given as a limit tells only on which side of the number the result lay.

As usually defined, the Cmax is the highest concentration seen after dosing. One may read the Vss as a proportionality between amount in the body and measured concentration, not a real space. A higher Vss goes with wide distribution into tissue. What is called t½ is the time needed for the level to fall by half in the phase considered. What is called Kd is a measure of binding affinity in units of concentration.

In [1], “CD33 Ab: parental CD33-binding antibody (gemtuzumab CDRs, IgG4) without VHH” returned an AUC0-inf of 219000 µg·h/mL, a Cl of 3.36 mL/day/kg, a Cmax of 810 µg/mL and a Vss of 0.0742 L/kg. This compound also had a t½ in series [1] of 237.0 h.

Take `CC(=O)N1c2ccc(-c3ccc(C(=O)NCCOCCOCCOCC(=O)N[C@H](C(=O)N4C[C@H](O)C[C@H]4C(=O)NCc4ccc(-c5scnc5C)cc4)C(C)(C)C)cc3)cc2[C@H](Nc2ccc(Cl)cc2)C[C@@H]1C` [MZP54]: on MIC2, the Kd came out at 0.42 nM, the koff entry was “NM/8.40E−05 1/s” and the kon entry is “NM/2.00E+05 1/Ms”.

For `Cc1nc(Nc2ncc(C(=O)Nc3c(C)cccc3Cl)s2)cc(N2CCN(C(=O)CCCCCCC(=O)N[C@H](C(=O)N3C[C@H](O)C[C@H]3C(=O)NCc3ccc(-c4scnc4C)cc3)C(C)(C)C)CC2)n1` [SIAIS178], at CD33xMIC7, the Kd came to 8.3e-09 M. In addition, at MIC2, the Kd worked out at 0.41 nM, the koff result was “NM/4.25E−05 1/s” and the kon entry was “NM/1.05E+05 1/Ms”.

As to `Cc1ncsc1-c1ccc(CNC(=O)[C@@H]2C[C@@H](O)CN2C(=O)[C@@H](NC(=O)C2(F)CC2)C(C)(C)C)c(OCCOc2ccc(CN3CCN(c4cc(-c5ccccc5O)nnc4N)CC3)cc2)c1` [ACBI1], the Kd at CD33xMIC6 came to 6.5e-06 M; at CD33xMIC5, 2.5e-06 M; on CD33xMIC10, 8.5e-06 M; at CD33xMIC14, 9.3e-07 M; at CD33xMIC13 it was 9.3e-05 M; on CD33xMIC11, 0.00011 M. This compound also yielded a dissociation constant (Kd) on MIC2 above 1000 nM.

Turning to `CC(=O)N1c2ccc(-c3ccc(C(=O)NCCOCCOCCOCCOCC(=O)N[C@H](C(=O)N4C[C@H](O)C[C@H]4C(=O)NCc4ccc(-c5scnc5C)cc4)C(C)(C)C)cc3)cc2[C@H](Nc2ccc(Cl)cc2)C[C@@H]1C` [MZP55], at MIC2, the Kd came out at 0.63 nM, the koff entry is “NM/7.40E−05 1/s” and the kon entry is listed as “NM/1.20E+05 1/Ms”.

On to `CCCOc1cccc(Oc2cc3c(cc2NS(=O)(=O)c2cccc(C(=O)NCCOCCOCCOCC(=O)N[C@H](C(=O)N4C[C@H](O)C[C@H]4C(=O)NCc4ccc(-c5scnc5C)cc4)C(C)(C)C)c2)n(C)c(=O)n3C)c1` [dTRIM24], for which, on MIC2, the dissociation constant (Kd) was determined as 0.42 nM, the koff result was “NM/1.64E−04 1/s” and the kon entry is on record as “NM/3.92E+05 1/Ms”.

On to `CC(=O)N[C@H](C(=O)N1C[C@H](O)C[C@H]1C(=O)NCc1ccc(-c2scnc2C)cc1)C(C)(C)SCCCCCCNC(=O)C[C@@H]1N=C(c2ccc(Cl)cc2)c2c(sc(C)c2C)-n2c(C)nnc21` [AT1], for which the Kd worked out at 1.7e-09 M on CD33xMIC12; 2.1e-09 M on CD33xMIC7; 7.3e-09 M at CD33xMIC6; 2.4e-09 M on CD33xMIC5; 2.4e-09 M at CD33xMIC10; 5.2e-09 M on CD33xMIC8. For the same compound, the Kd on CD33xMIC9 was 1.4e-09 M; at CD33xMIC14, 2.9e-09 M; at CD33xMIC13, 1.7e-09 M; at CD33xMIC11, 1.9e-10 M; at MIC2 it was 6 nM. Further, the koff entry in the series with MIC2 is “NM/1.90E−03 1/s”. Also, the kon entry in the series on MIC2 is “NM/3.10E+05 1/Ms”.

As to `COc1cc(-c2cn(C)c(=O)c3cnccc23)cc(OC)c1CN1CCN(CCCCCOc2cc(-c3scnc3C)ccc2CNC(=O)[C@@H]2C[C@@H](O)CN2C(=O)[C@@H](NC(=O)C2(F)CC2)C(C)(C)C)CC1` [VZ185], the equilibrium dissociation constant (Kd) at MIC2 was above 1000 nM.

The record behind these values is patent US20250312468A1, “ANTI-PROTAC ANTIBODIES AND COMPLEXES” (Merck Patent GmbH, priority 2021, published 2025).
